A short description of this data set: processability of the solid form (grinding / micronization, flowability, sievability). In kind it is physicochemical.

For `COC(=O)Nc1c(N)nc(-c2nn(Cc3ccccc3F)c3ncccc23)nc1N` [modification I, methyl {4,6-diamino-2-[1-(2-fluorobenzyl)-1H-pyrazolo[3,4-b]pyridin-3-yl]pyrimidin-5-yl}carbamate], the grindability entry (micronization step) was “difficult to grind”.

Turning to `COC(=O)Nc1c(N)nc(-c2nn(Cc3ccccc3F)c3ncccc23)nc1N` [semi-ethanol solvate of the formula (Ia), semi-ethanol solvate of methyl {4,6-diamino-2-[1-(2-fluorobenzyl)-1H-Pyrazolo[3,4-b]pyridin-3-yl]pyrimidin-5-yl}carbamate], the flowability and sievability result (compared to modification I of the compound of the formula (I)) was “better flowability and sievability”. For the same compound, the “fineness and tail of coarse material in the micronisate” value (compared to modification I, micronisate) is “higher fine-ness and a reduced tail of coarse material”.

(Values after US20120316183A1, “NOVEL SOLVATES OF METHYLCARBAMATE” (Bayer Intellecutal Property GmbH, priority 2009, published 2012).)
